Measured values from ChEMBL document CHEMBL4325829, “Design and Synthesis of Tubulin and Histone Deacetylase Inhibitor Based on iso-Combretastatin A-4” (J Med Chem, 2018).
In brackets after ≈: the same amount, converted by molar mass. Activity calls are given as the source filed them. The calls are words filed in the database; no cut-off is given here.

Experiments:
[1] = molecular target: Histone deacetylase 1 (Homo sapiens) (UniProt Q13547); experiment: Inhibition of human recombinant HDAC1 at 10^-5 M after 15 mins using fluorogenic substrate by fluorimetric assay relative to control
[2] = molecular target: Histone deacetylase 3 (Homo sapiens) (UniProt O15379); experiment: Inhibition of human recombinant HDAC3 at 10^-5 M after 10 mins using fluorogenic substrate by fluorimetric assay relative to control
[3] = molecular target: Histone deacetylase 5 (Homo sapiens) (UniProt Q9UQL6); experiment: Inhibition of human recombinant HDAC5 at 10^-5 M after 30 mins using fluorogenic substrate by fluorimetric assay relative to control
[4] = molecular target: T1, Protein deacetylase HDAC6 (Homo sapiens) (UniProt Q9UBN7); experiment: Inhibition of human recombinant HDAC6 at 10^-5 M after 30 mins using fluorogenic substrate by fluorimetric assay relative to control
T1 sequence (whole entry): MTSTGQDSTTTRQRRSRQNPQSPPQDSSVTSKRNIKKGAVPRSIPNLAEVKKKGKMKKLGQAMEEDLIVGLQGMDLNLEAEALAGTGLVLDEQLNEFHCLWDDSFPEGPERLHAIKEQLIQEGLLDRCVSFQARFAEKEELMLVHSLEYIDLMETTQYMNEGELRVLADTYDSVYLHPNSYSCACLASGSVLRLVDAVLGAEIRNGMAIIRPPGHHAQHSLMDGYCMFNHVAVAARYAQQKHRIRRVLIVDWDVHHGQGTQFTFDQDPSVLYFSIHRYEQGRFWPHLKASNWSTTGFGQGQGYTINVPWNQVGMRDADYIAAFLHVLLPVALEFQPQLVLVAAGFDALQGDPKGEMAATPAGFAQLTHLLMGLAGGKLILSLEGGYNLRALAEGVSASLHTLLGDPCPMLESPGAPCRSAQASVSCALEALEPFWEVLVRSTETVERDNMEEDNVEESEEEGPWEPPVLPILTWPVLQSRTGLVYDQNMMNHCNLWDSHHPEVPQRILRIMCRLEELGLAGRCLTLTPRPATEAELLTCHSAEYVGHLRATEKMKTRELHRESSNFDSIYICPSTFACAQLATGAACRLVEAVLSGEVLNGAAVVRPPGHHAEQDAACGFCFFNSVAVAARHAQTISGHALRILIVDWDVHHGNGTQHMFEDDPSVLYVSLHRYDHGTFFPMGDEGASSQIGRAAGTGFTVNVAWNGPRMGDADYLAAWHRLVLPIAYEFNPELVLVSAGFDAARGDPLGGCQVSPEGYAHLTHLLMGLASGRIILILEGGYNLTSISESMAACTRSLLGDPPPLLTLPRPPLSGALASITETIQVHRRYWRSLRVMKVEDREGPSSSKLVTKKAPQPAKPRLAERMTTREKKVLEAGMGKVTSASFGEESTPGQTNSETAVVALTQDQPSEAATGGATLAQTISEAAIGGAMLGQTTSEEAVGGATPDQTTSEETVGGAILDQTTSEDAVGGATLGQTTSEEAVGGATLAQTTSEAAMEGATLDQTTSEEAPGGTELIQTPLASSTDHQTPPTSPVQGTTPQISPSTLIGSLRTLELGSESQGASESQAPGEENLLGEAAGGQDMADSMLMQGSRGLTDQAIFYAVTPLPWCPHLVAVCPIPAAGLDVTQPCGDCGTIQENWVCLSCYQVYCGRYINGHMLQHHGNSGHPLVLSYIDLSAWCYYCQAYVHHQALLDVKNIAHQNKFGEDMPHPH

[5] = molecular target: Histone deacetylase 7 (Homo sapiens) (UniProt Q8WUI4); experiment: Inhibition of human recombinant HDAC7 at 10^-5 M after 45 mins using fluorogenic substrate by fluorimetric assay relative to control
[6] = molecular target: T2, Histone deacetylase 8 (Homo sapiens) (UniProt Q9BY41); experiment: Inhibition of human recombinant HDAC8 at 10^-5 M after 60 mins using fluorogenic substrate by fluorimetric assay relative to control
T2 sequence (whole entry): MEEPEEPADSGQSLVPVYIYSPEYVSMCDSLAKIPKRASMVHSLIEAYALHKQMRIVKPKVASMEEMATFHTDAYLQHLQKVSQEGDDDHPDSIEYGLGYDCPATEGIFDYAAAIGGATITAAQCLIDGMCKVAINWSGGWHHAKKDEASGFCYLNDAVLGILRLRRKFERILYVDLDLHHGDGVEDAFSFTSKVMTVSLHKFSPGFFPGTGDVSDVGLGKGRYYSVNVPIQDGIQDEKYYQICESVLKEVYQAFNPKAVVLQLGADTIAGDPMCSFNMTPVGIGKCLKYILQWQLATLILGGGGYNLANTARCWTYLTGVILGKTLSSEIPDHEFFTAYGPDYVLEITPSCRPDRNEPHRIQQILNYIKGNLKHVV

[7] = molecular target: Polyamine deacetylase HDAC10 (Homo sapiens) (UniProt Q969S8); experiment: Inhibition of human recombinant HDAC10 at 10^-5 M after 45 mins using fluorogenic substrate by fluorimetric assay relative to control
[8] = molecular target: Histone deacetylase 11 (Homo sapiens) (UniProt Q96DB2); experiment: Inhibition of human recombinant HDAC11 at 10^-5 M after 45 mins using fluorogenic substrate by fluorimetric assay relative to control
[9] = molecular target: T3, Histone deacetylase 11 (Homo sapiens, UniProt Q96DB2); experiment: Inhibition of human recombinant HDAC11 after 30 mins using fluorogenic substrate by fluorimetric assay
T3 sequence (Q96DB2 whole entry): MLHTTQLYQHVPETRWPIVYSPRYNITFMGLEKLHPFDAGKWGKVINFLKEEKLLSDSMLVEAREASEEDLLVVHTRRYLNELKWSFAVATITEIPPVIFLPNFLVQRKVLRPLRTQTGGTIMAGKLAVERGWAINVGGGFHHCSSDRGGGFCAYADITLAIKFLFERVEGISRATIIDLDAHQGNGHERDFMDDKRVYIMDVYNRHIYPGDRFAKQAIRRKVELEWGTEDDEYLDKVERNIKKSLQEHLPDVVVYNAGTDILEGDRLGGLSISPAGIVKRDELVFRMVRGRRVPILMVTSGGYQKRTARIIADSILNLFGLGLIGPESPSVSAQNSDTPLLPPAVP

[10] = tested on: A549; experiment: Antiproliferative activity against human A549 cells after 72 hrs by MTS assay; format: functional; details: Homo sapiens, A549, 72 h
[11] = tested on: K562; experiment: Antiproliferative activity against human K562 cells after 72 hrs by MTS assay; format: functional; details: Homo sapiens, K562, 72 h
[12] = tested on: K-562R; experiment: Antiproliferative activity against human K562R cells after 72 hrs by MTS assay; format: functional; details: Homo sapiens, K-562R, 72 h
[13] = tested on: PC-3; experiment: Antiproliferative activity against human PC3 cells after 72 hrs by MTS assay; format: functional; details: Homo sapiens, PC-3, 72 h
[14] = tested on: MCF7; experiment: Antiproliferative activity against human MCF7 cells after 72 hrs by MTS assay; format: functional; details: Homo sapiens, MCF7, 72 h
[15] = tested on: HT-29; experiment: Antiproliferative activity against human HT-29 cells after 72 hrs by MTS assay; format: functional; details: Homo sapiens, HT-29, 72 h
[16] = Induction of apoptosis in human BL2 cells assessed as late apoptotic cells at 10 nM after 48 hrs by annexin V-FITC/propidium iodide double staining-based flow cytometry (reference value: 2.1%); format: functional
[17] = Aqueous solubility of the compound; format: physicochemical; details: water

Chain of Polyamine deacetylase HDAC10 (Homo sapiens) (Q969S8 whole entry): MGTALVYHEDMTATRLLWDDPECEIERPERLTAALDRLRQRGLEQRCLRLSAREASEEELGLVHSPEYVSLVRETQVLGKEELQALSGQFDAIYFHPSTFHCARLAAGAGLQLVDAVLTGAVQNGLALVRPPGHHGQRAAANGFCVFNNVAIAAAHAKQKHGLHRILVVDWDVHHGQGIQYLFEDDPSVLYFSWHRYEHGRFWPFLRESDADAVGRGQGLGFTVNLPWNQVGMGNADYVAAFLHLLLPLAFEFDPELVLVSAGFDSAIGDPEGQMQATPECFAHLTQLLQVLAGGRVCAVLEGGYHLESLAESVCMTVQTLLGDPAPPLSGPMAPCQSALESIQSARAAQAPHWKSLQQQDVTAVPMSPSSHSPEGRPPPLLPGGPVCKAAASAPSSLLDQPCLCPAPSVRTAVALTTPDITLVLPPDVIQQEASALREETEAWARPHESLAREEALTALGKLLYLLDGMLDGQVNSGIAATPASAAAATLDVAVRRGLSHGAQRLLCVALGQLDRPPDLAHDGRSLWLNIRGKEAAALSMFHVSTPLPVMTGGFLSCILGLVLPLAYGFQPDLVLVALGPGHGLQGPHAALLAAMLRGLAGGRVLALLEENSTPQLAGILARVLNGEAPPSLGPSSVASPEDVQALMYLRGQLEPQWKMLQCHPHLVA
Chain of Histone deacetylase 5 (Homo sapiens) (Q9UQL6 whole entry): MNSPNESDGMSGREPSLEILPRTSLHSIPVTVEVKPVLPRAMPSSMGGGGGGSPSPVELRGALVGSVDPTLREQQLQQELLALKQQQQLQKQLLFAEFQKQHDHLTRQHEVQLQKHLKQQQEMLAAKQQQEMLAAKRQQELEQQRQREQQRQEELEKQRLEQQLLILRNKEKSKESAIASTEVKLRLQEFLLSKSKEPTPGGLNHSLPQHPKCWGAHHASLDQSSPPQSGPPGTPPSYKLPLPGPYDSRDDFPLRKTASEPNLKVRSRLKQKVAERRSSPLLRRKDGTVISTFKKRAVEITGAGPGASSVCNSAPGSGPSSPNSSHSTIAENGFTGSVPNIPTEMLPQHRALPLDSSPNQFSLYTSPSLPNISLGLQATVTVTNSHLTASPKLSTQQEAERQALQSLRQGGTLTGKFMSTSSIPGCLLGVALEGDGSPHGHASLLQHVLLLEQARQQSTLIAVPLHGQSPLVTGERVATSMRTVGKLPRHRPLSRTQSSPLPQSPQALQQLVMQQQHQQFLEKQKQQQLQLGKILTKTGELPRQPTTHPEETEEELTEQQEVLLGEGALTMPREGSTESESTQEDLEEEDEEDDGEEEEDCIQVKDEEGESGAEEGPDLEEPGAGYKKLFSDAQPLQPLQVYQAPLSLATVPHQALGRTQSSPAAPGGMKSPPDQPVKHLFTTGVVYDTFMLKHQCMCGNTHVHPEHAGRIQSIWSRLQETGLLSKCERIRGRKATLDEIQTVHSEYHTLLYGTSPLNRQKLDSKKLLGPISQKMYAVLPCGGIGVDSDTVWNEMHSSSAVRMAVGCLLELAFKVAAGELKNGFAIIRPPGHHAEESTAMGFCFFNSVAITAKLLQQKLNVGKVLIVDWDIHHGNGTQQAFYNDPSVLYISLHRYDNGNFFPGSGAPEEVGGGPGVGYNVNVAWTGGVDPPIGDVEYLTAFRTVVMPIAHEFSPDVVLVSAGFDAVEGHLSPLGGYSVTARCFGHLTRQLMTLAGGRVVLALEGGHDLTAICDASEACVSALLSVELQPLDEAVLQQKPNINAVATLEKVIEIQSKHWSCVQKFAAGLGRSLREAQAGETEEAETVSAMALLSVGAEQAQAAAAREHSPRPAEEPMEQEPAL
Chain of Histone deacetylase 3 (Homo sapiens) (O15379 whole entry): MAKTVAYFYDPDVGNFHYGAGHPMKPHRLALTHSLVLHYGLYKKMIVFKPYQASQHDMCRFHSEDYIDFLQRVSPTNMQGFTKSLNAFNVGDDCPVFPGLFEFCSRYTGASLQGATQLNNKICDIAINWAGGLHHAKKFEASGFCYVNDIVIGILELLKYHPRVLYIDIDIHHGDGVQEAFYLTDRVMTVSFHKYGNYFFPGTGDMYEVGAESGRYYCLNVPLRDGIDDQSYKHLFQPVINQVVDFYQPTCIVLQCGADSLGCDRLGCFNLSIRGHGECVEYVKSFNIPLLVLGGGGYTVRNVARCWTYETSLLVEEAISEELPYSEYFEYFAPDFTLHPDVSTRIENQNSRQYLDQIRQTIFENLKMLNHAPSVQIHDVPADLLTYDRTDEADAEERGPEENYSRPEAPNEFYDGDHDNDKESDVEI
Chain of Histone deacetylase 1 (Homo sapiens) (Q13547 whole entry): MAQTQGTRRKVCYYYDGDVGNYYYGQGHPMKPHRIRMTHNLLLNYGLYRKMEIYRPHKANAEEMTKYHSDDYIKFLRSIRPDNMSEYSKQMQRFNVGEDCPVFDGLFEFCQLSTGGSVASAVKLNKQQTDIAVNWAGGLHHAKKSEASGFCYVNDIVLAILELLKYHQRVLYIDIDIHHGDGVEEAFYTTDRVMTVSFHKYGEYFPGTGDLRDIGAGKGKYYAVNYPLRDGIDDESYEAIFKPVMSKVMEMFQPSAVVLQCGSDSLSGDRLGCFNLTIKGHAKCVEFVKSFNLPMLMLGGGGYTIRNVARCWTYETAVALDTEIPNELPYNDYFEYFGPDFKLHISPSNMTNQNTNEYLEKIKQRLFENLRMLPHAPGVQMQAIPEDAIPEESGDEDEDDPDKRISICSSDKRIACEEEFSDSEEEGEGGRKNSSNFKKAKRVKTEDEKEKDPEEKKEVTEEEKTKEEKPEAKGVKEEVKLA
Chain of Histone deacetylase 7 (Homo sapiens) (Q8WUI4 whole entry): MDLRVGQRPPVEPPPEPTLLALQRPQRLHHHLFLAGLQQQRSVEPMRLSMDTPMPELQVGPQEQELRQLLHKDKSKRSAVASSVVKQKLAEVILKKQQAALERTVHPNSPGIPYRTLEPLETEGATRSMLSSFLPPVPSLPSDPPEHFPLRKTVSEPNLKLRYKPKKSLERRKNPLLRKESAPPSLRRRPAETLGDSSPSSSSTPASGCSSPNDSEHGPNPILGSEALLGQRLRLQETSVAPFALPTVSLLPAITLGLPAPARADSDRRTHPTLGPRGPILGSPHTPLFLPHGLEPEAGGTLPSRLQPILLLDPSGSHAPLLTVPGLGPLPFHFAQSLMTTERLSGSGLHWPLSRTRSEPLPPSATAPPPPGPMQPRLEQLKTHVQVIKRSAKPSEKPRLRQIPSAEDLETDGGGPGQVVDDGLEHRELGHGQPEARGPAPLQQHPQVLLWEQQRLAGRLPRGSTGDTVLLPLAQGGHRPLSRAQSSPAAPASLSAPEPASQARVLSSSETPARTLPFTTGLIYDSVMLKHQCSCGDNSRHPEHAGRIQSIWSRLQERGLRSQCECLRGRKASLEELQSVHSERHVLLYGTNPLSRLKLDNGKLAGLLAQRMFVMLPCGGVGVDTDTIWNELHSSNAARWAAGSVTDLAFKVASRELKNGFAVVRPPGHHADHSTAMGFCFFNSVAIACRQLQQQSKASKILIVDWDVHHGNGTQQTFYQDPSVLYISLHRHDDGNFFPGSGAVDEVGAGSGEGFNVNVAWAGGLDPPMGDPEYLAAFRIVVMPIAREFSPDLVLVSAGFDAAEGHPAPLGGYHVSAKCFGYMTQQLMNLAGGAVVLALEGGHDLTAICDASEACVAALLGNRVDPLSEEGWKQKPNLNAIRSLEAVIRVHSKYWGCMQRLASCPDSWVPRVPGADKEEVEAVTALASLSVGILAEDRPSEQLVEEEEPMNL

C=C(c1ccc(OC)c(/C=C/C(=O)NO)c1)c1cc(OC)c(OC)c(OC)c1
inhibition [1]: < 50%
inhibition [2]: < 50%
inhibition [3]: < 50%
inhibition [4]: < 50%
inhibition [5]: < 50%
inhibition [6]: 95%
inhibition [7]: < 50%
inhibition [8]: 60%
IC50 ([9]; read-out: IC50): 10000 nM
GI50 [10]: 1.7 nM
GI50 [11]: 1.6 nM
GI50 [12]: 1.4 nM
GI50 [13]: 0.4 nM
GI50 [14]: 2 nM
GI50 [15]: 2.04 nM
Activity [16]: 13.7%
solubility [17]: 69.3 µg/mL (≈ 180 µM)

C=C(c1ccc(OC)c(O)c1)c1cc(OC)c(OC)c(OC)c1
inhibition [1]: inactive
inhibition [2]: inactive
inhibition [3]: inactive
inhibition [4]: inactive
inhibition [5]: inactive
inhibition [6]: inactive
inhibition [7]: inactive
inhibition [8]: inactive
IC50 [9]: Not Active
GI50 [10]: 10 nM
GI50 [11]: 5.2 nM
GI50 [12]: 2.2 nM
GI50 [13]: 3 nM
GI50 [14]: 8 nM
GI50 [15]: 276 nM
Activity [16]: 14.3%
solubility [17]: 11.6 µg/mL (≈ 36.7 µM)
